This is an account of results in US20140135319A1, “6-SUBSTITUTED IMIDAZOPYRAZINES FOR USE AS MPS-1 AND TKK INHIBITORS IN THE TREATMENT OF HYPERPROLIFERATIVE DISORDERS” (BAYER INTELLECTUAL PROPERTY GMBH, priority 2010, published 2014).

For this assay, the target named is T1, human kinase Mps-1 (Homo sapiens, UniProt P33981).
T1 construct: N-terminally GST-tagged human full length recombinant Mps-1 kinase; GST (N); purchased Invitrogen, Karslruhe, Germany PV4071
T1 sequence (P33981 1-857): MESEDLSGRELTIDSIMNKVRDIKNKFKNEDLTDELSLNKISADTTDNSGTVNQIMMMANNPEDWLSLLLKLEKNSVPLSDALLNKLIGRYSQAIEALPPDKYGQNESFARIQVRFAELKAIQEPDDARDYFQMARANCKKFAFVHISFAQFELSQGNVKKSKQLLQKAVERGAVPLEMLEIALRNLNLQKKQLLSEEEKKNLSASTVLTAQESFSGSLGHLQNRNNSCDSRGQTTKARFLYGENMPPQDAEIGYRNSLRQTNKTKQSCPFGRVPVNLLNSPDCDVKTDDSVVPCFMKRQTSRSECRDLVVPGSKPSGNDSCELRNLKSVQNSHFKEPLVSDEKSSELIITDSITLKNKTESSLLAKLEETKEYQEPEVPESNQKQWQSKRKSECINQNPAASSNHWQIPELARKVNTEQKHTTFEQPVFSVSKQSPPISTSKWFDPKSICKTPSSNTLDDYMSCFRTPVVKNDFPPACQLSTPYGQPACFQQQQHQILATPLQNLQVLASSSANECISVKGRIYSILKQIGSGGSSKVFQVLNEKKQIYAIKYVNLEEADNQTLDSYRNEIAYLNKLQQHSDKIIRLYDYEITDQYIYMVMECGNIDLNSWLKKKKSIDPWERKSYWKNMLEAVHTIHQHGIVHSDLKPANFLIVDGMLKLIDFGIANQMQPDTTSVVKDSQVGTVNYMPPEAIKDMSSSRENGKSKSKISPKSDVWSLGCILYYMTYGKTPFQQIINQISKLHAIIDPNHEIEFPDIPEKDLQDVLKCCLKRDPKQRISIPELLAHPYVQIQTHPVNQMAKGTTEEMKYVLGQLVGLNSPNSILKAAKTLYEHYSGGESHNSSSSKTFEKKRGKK
Kind of assay: Mps-1 kinase assay (TR-FRET). Format: biochemical. The settings on record: GST-tagged human full length recombinant Mps-1; 10 μM ATP; 1 μM peptide substrate; 60 min at 22° C. In outline:
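N-terminally GST-tagged full-length recombinant human Mps-1, about 1 nM final, phosphorylates a biotinylated peptide. Product detected by TR-FRET from Eu-anti-phospho-Ser/Thr antibody to streptavidin-XLent after 1 h at 22° C.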
On the technique in general: Time-resolved FRET reads energy transfer from a long-lived donor to a nearby acceptor.
In the case of `Cc1ccc(-c2cn3c(-c4ccc(C(=O)NC5CC5)cc4)cnc3c(NCC(C)(C)O)n2)cc1CC(N)=O` [Example 1-99, 4-{6-[3-(2-Amino-2-oxo-ethyl)-4-methylphenyl]-8-[(2-hydroxy-2-methylpropyl)amino]imidazo[1,2-a]pyrazin-3-yl}-N-cyclopropylbenzamide], the IC50 was 16.1 nM.

As to `COc1cc(C(=O)NC2CC2)ccc1-c1cnc2c(NCCCN)nc(-c3ccncc3)cn12` [Example 1-100, 4-{8-[(3-Aminopropyl)amino]-6-(pyridin-4-yl)imidazo [1,2-a]pyrazin-3-yl}-N-cyclopropyl-3-methoxy-benzamide], the IC50 came to 309 nM.

`NCCCNc1nc(-c2ccncc2)cn2c(-c3ccc(C(=O)NC4CC4)c(Cl)c3)cnc12` [Example 1-101, 4-{8-[(3-Aminopropyl)amino]-6-(pyridin-4-yl)imidazo [1,2-a]pyrazin-3-yl}-2-chloro-N-cyclopropyl-benzamide]: the IC50 was 361 nM.

For `COc1cc(C(=O)NC2CC2)ccc1-c1cnc2c(NCCCN)nc(-c3ccnn3C)cn12` [Example 1-102, 4-{8-[(3-Aminopropyl)amino]-6-(1-methyl-1H-pyrazol-5-yl)imidazo[1,2-a]pyrazin-3-yl}-N-cyclopropyl-3-methoxybenzamide], the IC50 was found to be 531 nM.

Consider `Cc1cc(-c2cnc3c(NCCC(F)(F)F)nc(-c4ccncc4)cn23)ccc1C(=O)NC1CC1` [Example 1-103, N-cyclopropyl-2-methyl-4-{6-(pyridin-4-yl)-8-[(3,3,3-trifluoropropyl)amino]imidazo[1,2-a]pyrazin-3-yl}benzamide], for which the IC50 came to 1.3 nM.

On to `CC(C)CNc1nc(-c2ccccc2)cn2c(-c3ccc(C(=O)NC4CC4(C)C)cc3)cnc12` (stereo not shown) [Example 2-1, N-(2,2-dimethylcyclopropyl)-4-{8-[(2-methylpropyl)amino]-6-phenylimidazo[1,2-a]pyrazin-3-yl}benzamide], for which the IC50 is 162 nM.

Take `CC(C)CNc1nc(-c2ccccc2)cn2c(-c3ccc(C(=O)NC4CC4F)cc3)cnc12` (stereo not shown) [Example 2-2, N-(2-fluorocyclopropyl)-4-{8-[(2-methylpropyl)amino]-6-phenylimidazo [1,2-a]pyrazin-3-yl} benzamide]: the IC50 worked out at 10.1 nM.

Consider `CC(C)CNc1nc(-c2ccccc2)cn2c(-c3ccc(C(=O)NC4(C)CC4)cc3)cnc12` [Example 2-3, N-(1-methylcyclopropyl)-4-{8-[(2-methylpropyl)amino]-6-phenylimidazo [1,2-a]pyrazin-3-yl}benzamide], for which the IC50 was determined as 208 nM.

With `O=C(NC1CC1)c1ccc(-c2cnc3c(NCc4cccs4)nc(-c4ccncc4)cn23)cc1` [Example 3-1, N-cyclopropyl-4-{6-(pyridin-4-yl)-8-[(thiophen-2-ylmethyl)amino]imidazo[1,2-a]pyrazin-3-yl}benzamide], the IC50 came to 4.1 nM.

Consider `C#CCNc1nc(-c2ccccc2)cn2c(-c3ccc(C(=O)NC4CC4)cc3)cnc12` [Example 3-2, N-cyclopropyl-4-[6-phenyl-8-(prop-2-yn-1-ylamino)imidazo[1,2-a]pyrazin-3-yl]benzamide], for which the IC50 is 7.4 nM.

As to `CCCNc1nc(-c2ccncc2)cn2c(-c3ccc(C(=O)NC4CC4)cc3)cnc12` [Example 3-3, N-cyclopropyl-4-[8-(propylamino)-6-(pyridin-4-yl)imidazo[1,2-a]pyrazin-3-yl]benzamide], the IC50 worked out at 2.1 nM.

Take `O=C(NC1CC1)c1ccc(-c2cnc3c(NCCO)nc(-c4ccncc4)cn23)cc1` [Example 3-4, N-cyclopropyl-4-{8-[(2-hydroxyethyl)amino]-6-(pyridin-4-yl)imidazo [1,2-a]pyrazin-3-yl} benzamide]: the IC50 is 11.3 nM.

As to `O=C(NC1CC1)c1ccc(-c2cnc3c(NCCCN4CCOCC4)nc(-c4ccncc4)cn23)cc1` [Example 3-5, N-cyclopropyl-4-[8-{[3-(morpholin-4-yl)propyl]amino}-6-(pyridin-4-yl)imidazo[1,2-a]pyrazin-3-yl]benzamide], the IC50 is 214 nM.

As for `CC(C)CCNc1nc(-c2ccncc2)cn2c(-c3ccc(C(=O)NC4CC4)cc3)cnc12` [Example 3-6, N-cyclopropyl-4-{8-[(3-methylbutyl)amino]-6-(pyridin-4-yl)imidazo [1,2-a]pyrazin-3-yl} benzamide], the IC50 turned out to be 2.4 nM.

Consider `O=C(NC1CC1)c1ccc(-c2cnc3c(NCC4CCCO4)nc(-c4ccncc4)cn23)cc1` (stereo not shown) [Example 3-7, N-cyclopropyl-4-{6-(pyridin-4-yl)-8-[(tetrahydrofuran-2-ylmethyl)amino]imidazo[1,2-a]pyrazin-3-yl}benzamide], for which the IC50 is 2.4 nM.

Turning to `O=C(NC1CC1)c1ccc(-c2cnc3c(NCCCN4CCCC4=O)nc(-c4ccncc4)cn23)cc1` [Example 3-8, N-cyclopropyl-4-[8-{[3-(2-oxopyrrolidin-1-yl)propyl]amino}-6-(pyridin-4-yl)imidazo[1,2-a]pyrazin-3-yl]benzamide], the half-inhibitory concentration (IC50) stood at 17.6 nM.

`O=C(NC1CC1)c1ccc(-c2cnc3c(NCc4ccccc4F)nc(-c4ccncc4)cn23)cc1` [Example 3-9, N-cyclopropyl-4-{8-[(2-fluorobenzyl)amino]-6-(pyrdin-4-yl)imidazo [1,2-a]pyrazin-3-yl} benzamide]: the IC50 was determined as 1 nM.

On to `O=C(NC1CC1)c1ccc(-c2cnc3c(NCc4ccc(F)cc4)nc(-c4ccncc4)cn23)cc1` [Example 3-10, N-cyclopropyl-4-{8-[(4-fluorobenzyl)amino]-6-(pyrdin-4-yl)imidazo [1,2-a]pyrazin-3-yl} benzamide], for which the IC50 is 1.9 nM.

Consider `O=C(NC1CC1)c1ccc(-c2cnc3c(NCCCCO)nc(-c4ccncc4)cn23)cc1` [Example 3-11, N-cyclopropyl-4-{8-[(4-hydroxybutyl)amino]-6-(pyridin-4-yl)imidazo [1,2-a]pyrazin-3-yl} benzamide], for which the IC50 was 4.1 nM.

Consider `O=C(NC1CC1)c1ccc(-c2cnc3c(NCc4ccccc4)nc(-c4ccncc4)cn23)cc1` [Example 3-12, 4-[8-(benzylamino)-6-(pyridin-4-yl)imidazo [1,2-a]pyrazin-3-yl]-N-cyclopropylbenzamide], for which the IC50 stood at 2.3 nM.

Regarding `CCCCNc1nc(-c2ccncc2)cn2c(-c3ccc(C(=O)NC4CC4)cc3)cnc12` [Example 3-13, 4-[8-(butylamino)-6-(pyridin-4-yl)imidazo [1,2-a]pyrazin-3-yl]-N-cyclopropylbenzamide], the IC50 came to 1.7 nM.

Regarding `CC(=O)NCCNc1nc(-c2ccncc2)cn2c(-c3ccc(C(=O)NC4CC4)cc3)cnc12` [Example 3-14, 4-[8-{[2-(acetylamino)ethyl]amino}-6-(pyridin-4-yl)imidazo[1,2-a]pyrazin-3-yl]-N-cyclo-propylbenzamide], the IC50 came to 30.7 nM.

Regarding `O=C(NC1CC1)c1ccc(-c2cnc3c(NCc4c(F)cccc4F)nc(-c4ccncc4)cn23)cc1` [Example 3-15, N-cyclopropyl-4-{8-[(2,6-difluorobenzyl)amino]-6-(pyridin-4-yl)imidazo [1,2-a]pyrazin-3-yl} benzamide], the IC50 turned out to be 2.7 nM.

`O=C(NC1CC1)c1ccc(-c2cnc3c(NCCCn4ccnc4)nc(-c4ccncc4)cn23)cc1` [Example 3-16, N-cyclopropyl-4-[8-{[3-(1H-imidazol-1-yl)propyl]amino}-6-(pyridin-4-yl)imidazo[1,2-a]pyrazin-3-yl]benzamide]: the IC50 was 12.9 nM.

`O=C(NC1CC1)c1ccc(-c2cnc3c(NCc4ccccn4)nc(-c4ccncc4)cn23)cc1` [Example 3-17, N-cyclopropyl-4-{6-(pyridin-4-yl)-8-[(pyridin-2-ylmethyl)amino]imidazo [1,2-a]pyrazin-3-yl} benzamide]: the IC50 is 4.6 nM.

For `O=C(NC1CC1)c1ccc(-c2cnc3c(NCc4cccnc4)nc(-c4ccncc4)cn23)cc1` [Example 3-18, N-cyclopropyl-4-{6-(pyridin-4-yl)-8-[(pyridin-3-ylmethyl)amino]imidazo [1,2-a]pyrazin-3-yl} benzamide], the IC50 turned out to be 2 nM.

In the case of `O=C(NC1CC1)c1ccc(-c2cnc3c(NCc4ccncc4)nc(-c4ccncc4)cn23)cc1` [Example 3-19, N-cyclopropyl-4-{6-(pyridin-4-yl)-8-[(pyridin-4-ylmethyl)amino]imidazo [1,2-a]pyrazin-3-yl} benzamide], the IC50 was found to be 2.1 nM.

Take `O=C(NC1CC1)c1ccc(-c2cnc3c(NCc4ccco4)nc(-c4ccncc4)cn23)cc1` [Example 3-20, N-cyclopropyl-4-{8-[(furan-2-ylmethyl)amino]-6-(pyridin-4-yl)imidazo [1,2-a]pyrazin-3-yl} benzamide]: the IC50 amounted to 3.5 nM.

By IC50 is commonly meant the concentration that gives 50% inhibition.
